Molecular target: Platelet-activating factor receptor (Oryctolagus cuniculus)
Experiment: Inhibition of rabbit platelet aggregation induced by platelet activating factor (PAF)

| Compound | IC50 |
| --- | --- |
| CCCCCCCCCCCCCCCCCCNC(=O)OCC(COC(=O)N(CC[N+](C)(C)C)C(=O)CC)OC (stereo not drawn) | 5.6 µM |
| CCCCCCCCCCCCCCCCCCNC(=O)OCC(COC(=O)N(Cc1cccc[n+]1CCC)C(C)=O)OC (stereo not drawn) | 0.094 µM |
| CCCCCCCCCCCCCCCCCCNC(=O)OCC(COC(=O)N(CC[N+](C)(C)C)C(=O)N(C)C)OC (stereo not drawn) | 5.8 µM |
| CCCCCCCCCCCCCCCCCCNC(=O)OCC(COC(=O)N(CC[N+](C)(C)C)C(=O)CCC)OC (stereo not drawn) | 7.8 µM |
| CCCCCCCCCCCCCCCCCCNC(=O)OCC(COC(=O)N(Cc1csc[n+]1CC)C(C)=O)OC (stereo not drawn) | 0.092 µM |
| CCCCCCCCCCCCCCCCCCNC(=O)OCC(COC(=O)N(Cc1cccc[n+]1C)C(C)=O)OC (stereo not drawn) | 0.2 µM |
| CCCCCCCCCCCCCCCCCCOCC(COC(=O)NCC[N+](C)(C)C)OC(C)=O (stereo not drawn) | 8.4 µM |
| CCCCCCCCCCCCCCCCCCNC(=O)OCC(COC(=O)N(CC[N+](C)(C)C)C(C)=O)OC (stereo not drawn) | 1.5 µM |
| CCCCCCCCCCCCCCCCCCNC(=O)OCC(COC(=O)N(CC[N+]1(C)CCCC1)C(C)=O)OC (stereo not drawn) | 1.1 µM |
| CCCCCCCCCCCCCCCCCCNC(=O)OCC(COC(=O)N(C)CC[N+](C)(C)C)OC (stereo not drawn) | 8.2 µM |
| CCCCCCCCCCCCCCCCCCOCC(COC(=O)N(CC[N+](C)(C)C)C(C)=O)OC(C)=O (stereo not drawn) | 0.88 µM |
| CCCCCCCCCCCCCCCCCCNC(=O)OCC(COC(=O)N(CC[N+](C)(C)C)C(=O)OC)OC (stereo not drawn) | 2.3 µM |
| CCCCCCCCCCCCCCCCCCNC(=O)OCC(COC(=O)NCC[N+](C)(C)C)OC (stereo not drawn) | 14 µM |
| CCCCCCCCCCCCCCCCCCNC(=O)OCC(COC(=O)N(CC[N+]1(C)CCOCC1)C(C)=O)OC (stereo not drawn) | 9.2 µM |
| CCCCCCCCCCCCCCCCCCNC(=O)OCC(COC(=O)N(CC[N+](C)(C)C)C(=O)N1CCCC1)OC (stereo not drawn) | 8.6 µM |
| CCCCCCCCCCCCCCCCCCNC(=O)OCC(COC(=O)N(Cc1csc[n+]1C)C(C)=O)OC (stereo not drawn) | 0.1 µM |
| CCCCCCCCCCCCCCCCCCNC(=O)OCC(COC(=O)N(CC[N+](C)(C)C)C(=O)NCCC)OC (stereo not drawn) | > 30 µM |
| CCCCCCCCCCCCCCCCCCNC(=O)OCC(COC(=O)N(CCC[N+](C)(C)C)C(C)=O)OC (stereo not drawn) | 8.5 µM |

— BindingDB's records for doi:10.1021/jm00121a012 (Takeda Chemical Industries, 1989)
